Columns and labels:
[1] = xn = mol fraction of the nth substance listed; conditions: 298.15 K, 100 kPa, Liquid, Vibrating tube method
[2] = Liquid; for mass density: 298.15 K, 100 kPa, Vibrating tube method; for vapor or sublimation pressure / Normal boiling temperature: Ebulliometric method (Recirculating still)
[3] = refractive index (Na D-line) (dimensionless); conditions: 298.15 K; 101.33 kPa; Liquid; Standard Abbe refractometry

CCCCOC(C)=O [butyl ethanoate] + CCCCO
[1]
Conditions	mass density [kg/m3]
x1 = 0.0758	812.9
x1 = 0.1018	815.2
x1 = 0.1458	819
x1 = 0.2387	826.7
x1 = 0.3151	832.7
x1 = 0.3468	835.1
x1 = 0.3845	837.9
x1 = 0.3983	838.9
x1 = 0.4316	841.3
x1 = 0.5002	846.1
x1 = 0.5883	852
x1 = 0.6709	857.3
x1 = 0.7064	859.5
x1 = 0.7919	864.7
x1 = 0.8673	869.1
x1 = 0.9259	872.4
x1 = 0.9503	873.8
x1 = 1	876.5

CCCCOC(C)=O [butyl ethanoate]
Conditions	Normal boiling temperature [°C]	mass density [kg/m3]	refractive index
[2]	125.83	876.5	–
[3]	–	–	1.39201

Conditions	vapor or sublimation pressure [kPa]
[2], 413.3 K	150

CCCCOC(C)=O [butyl ethanoate] + CCO
[1]
Conditions	mass density [kg/m3]
x1 = 0.0443	793.7
x1 = 0.1461	810.2
x1 = 0.2003	817.6
x1 = 0.2554	824.3
x1 = 0.2954	828.8
x1 = 0.3487	834.3
x1 = 0.4451	843
x1 = 0.4968	847.2
x1 = 0.5987	854.6
x1 = 0.6505	858
x1 = 0.7492	863.9
x1 = 0.8035	866.9
x1 = 0.8567	869.7
x1 = 0.8978	871.7
x1 = 0.9429	873.9
x1 = 1	876.5

CO [methanol]
Conditions	vapor or sublimation pressure [kPa]
[2], 348.27 K	150

Conditions	Normal boiling temperature [°C]	refractive index
[2]	64.70	–
[3]	–	1.32676

CCO [ethanol]
Conditions	Normal boiling temperature [°C]	mass density [kg/m3]	refractive index
[2]	78.30	785.2	–
[3]	–	–	1.35933

Conditions	vapor or sublimation pressure [kPa]
[2], 361.98 K	150

CCCO [propan-1-ol] + CCCCOC(C)=O
Conditions	mass density [kg/m3]
[1], x2 = 0	799.6

CCCCO [butan-1-ol] + CCCCOC(C)=O
Conditions	mass density [kg/m3]
[1], x2 = 0	805.9

CCCO [propan-1-ol]
Conditions	Normal boiling temperature [°C]	mass density [kg/m3]	refractive index
[2]	97.20	799.6	–
[3]	–	–	1.38315

Conditions	vapor or sublimation pressure [kPa]
[2], 381.24 K	150

CCCCOC(C)=O [butyl ethanoate] + CCCO
[1]
Conditions	mass density [kg/m3]
x1 = 0.0433	805.1
x1 = 0.1028	812.1
x1 = 0.2026	822.6
x1 = 0.2517	827.3
x1 = 0.2927	831
x1 = 0.35	835.9
x1 = 0.3986	839.8
x1 = 0.4482	843.6
x1 = 0.554	851.1
x1 = 0.5962	853.9
x1 = 0.6371	856.5
x1 = 0.7071	860.8
x1 = 0.7623	864
x1 = 0.8001	866.1
x1 = 0.8413	868.4
x1 = 0.8942	871.2
x1 = 0.9401	873.5
x1 = 1	876.5

CCCCO [butan-1-ol]
Conditions	mass density [kg/m3]	refractive index
[2]	805.9	–
[3]	–	1.39732

Conditions	vapor or sublimation pressure [kPa]
[2], 402.59 K	150

CCO [ethanol] + CCCCOC(C)=O
Conditions	mass density [kg/m3]
[1], x2 = 0	785.2

Source: the NIST ThermoML archive (doi:10.1021/acs.jced.8b00182)
